# Patent US7737305B2, “Sulfonic acid polyol compound, polyurethane resin, polyurethane resin for magnetic recording medium, and magnetic recording medium” (FUJIFILM Corporation, priority 2007, dated 2010)
# Key:
# [1] = Solubility test in cyclohexanone (residue after dissolution); format: physicochemical; conditions: 1 part by weight in 5 parts by weight of cyclohexanone, 40° C., 3 hours, ultrasonic waves, filtered
# Method: (1-2) Solubility Test Method
# 1 part by weight of sulfonic acid (salt) diol compound was added to 5 parts by weight of cyclohexanone, and dissolution was carried out at 40° C. for 3 hours using ultrasonic waves. A solution thus obtained was filtered, and the presence/absence of a residue after dissolution was checked.
# [2] = background statement; cited from earlier work
SMILES,presence/absence of a residue after dissolution [1],solubility in organic solvents [2]
O=S(=O)([O-])CCN(CCO)CCO.[Li+],a residue was found,
O=S(=O)([O-])CCN(CCO)CCO.[K+],a residue was found,
O=S(=O)([O-])CCN(CCO)CCO.[Na+],a residue was found,
"O=S(=O)(O)CCN(CCO)CCO [N,N-bis(2-hydroxyethyl)-2-aminoethanesulfonic acid]",a residue was found,does not dissolve in organic solvents
